# Test results as given in patent US20220202940A1, “METHOD OF STABILIZING A DIALYSIS SOLUTION” (Fresenius Medical Care Deutschland GmbH, priority 2018, published 2022).
# Conditions: 0.1 mmol/l orthophosphate added to DUOSOL 4551 after the start of the precipitation, 40° C.
# Source text: The pH at which a significant precipitation of calcium carbonate starts is a criterion for the stability of the solution and is subsequently called pHmax. […] The time at which the significant precipitation of calcium carbonate starts is subsequently called tG to represent the “time of germination”.
# The stabilizing effect of a subsequent addition of phosphate or of a phosphate ester to existing dialysis solutions was examined using the rapid degassing method in a carousel setup. THz rapid degassing method in this variant allows an accelerated aging of dialysis solutions by degassing the CO2 from the bicarbonate buffer. The degassing of CO2 that normally occur slowly during the life of the products can be simulated within a few hours with this experiment setup.
# Three separate experiments are carried out for each data point and the mean value is used.
# That is, after a specific time period, 2.5 ml of a parent solution having 100 mmol/l glycerophosphate is added to the flasks containing 250 ml DUOSOL 4551, which results in a concentration of 1.0 mmol/l of glycerophosphate in the flask.
structure (smiles),measurement,value
O=P(O)(O)O [orthophosphate],dissolution of existing calcium carbonate precipitate,not observed
same,effect on precipitation of calcium carbonate,inhibiting effect
